Source: patent US20080004561A1, “Method for Treating Oncological, Virulent and Somatic Diseases, Method for Controlling Treatment Efficiency, Pharmaceutical Agents and Composition for Carrying Out Said Treatment” (priority 2005, published 2008)
“Also recorded” adds a separate entry of the source.

Key:
blood plasma DNA = assay: Blood plasma DNA concentration after end of DNase treatment course (Example 2); format: in vivo; details: Erlich carcinoma mice
Procedure: Fresh blood plasma (not more than 3-4 hours after isolation) with anticoagulant (sodium citrate) addition was centrifuged on Ficoll-PlaquePlus (Amersham-Pharmacia) step at 1500 g for 20 minutes at room temperature. Plasma (½ of all amount) was neatly isolated avoiding touching cells sediment on ficoll step and was centrifuged at 10 000 g for 30 minutes to eliminate cells and debris. Supernatant was taken away not touching sediment and up to 1% of sarcosile, up to 50 mM of tris HCl pH 7,6, up to 20 mM EDTA, up to 400 mM NaCl and equal volume of phenol—chloroform mixture 1:1 were added. Received emulsion was incubated at 65° C. for 2 hours than phenol-chloroform was separated by centrifuging at 5000 g during 20 minutes at room temperature. Deproteinization by phenol-chloroform method was identically repeated for three times after what water phase was processed by chloroform and after it by diethyl ether.
Organic solvents' separation was done by centrifuging at 5000 g during 15 minutes. Equal part of isopropanol was added to water phase and incubated during night at 0° C.
After sedimentation nucleic acids were separated by centrifuging at 10 000 g during 30 minutes. […]
DNA was isolated by method that is mentioned above. DNA amount was spectrophotometrically measured. […]

[1] = tested on: Staphylococcus aureus VT-2003R; assay: DNase use for treatment of the experimental sepsis (Example 5); format: in vivo; details: mice, DNase 500 mkg/kg intraperitoneally four times a day, 1-3 days after infection
Excerpt: White not thoroughbred mice were used for experiment. Animals' weight was 24-26 grams. Pathogenic strain of Staphylococcus aureus VT-2003R at 1×10^10 bacteria/animal dose was inoculated to retroorbital sinus of animals. DNase was intraperitoneally administered. Isotonic solution of sodium chloride or Penicillin was administrated to control groups. Each experimental group contained 10 mice. Intraperitoneal administration of compound (DNAase) four times a day at 500 mkg/kg dose continued for 1-3 days after infection. Penicillin was intramusculary administrated. Efficiency of action was estimated by number of animals that stayed alive after the death of the last one in control group. All animals have died to the third day of the experiment in control group. Six animals stayed alive to the third day of the experiment in the group that administrated DNase. Protection was […]. Received data specify an opportunity and efficiency of DNase use for infections' treatment.

[2] = tested on: DNA from fresh blood serum; assay: Sensitivity of circulating blood DNA to DNase action, electrophoresis (Example 9); format: biochemical, volunteers; details: DNA processed by DNase I for 3 hours at 37° C.
Procedure: DNA from fresh blood serum (mixture of blood received from 5 volunteers ) was isolated by standard phenol-chloroform method.
Sediment of nucleic acids was washed by 70% ethanol and dissolved in tris-EDTA buffer. Spectrophotometry with wave's length 260 nm (SF-46) was used for quantification of DNA. DNA was researched by electrophoresis in 0.8% […] gel with ethidium bromide staining. One part of received DNA was processed by DNase I for 3 hours at 37° C. After electrophoretic separation of processed and not processed DNA it was found out that: […]

[3] = tested on: DNA from biofilm matrix of Escherichia coli; assay: DNAase I processing of DNA from biofilm matrix, electrophoresis (Example 12); format: biochemical; details: DNA processed for 3 hours by DNAase I at 37° C.
Excerpt: (§1) Biofilms of Escherichia coli and Staphylococcus aureus were used in experiments. Biofilms were washed off by phosphate buffer from agar. Cells and matrix were separated by centrifuging. Standard phenol-chloroform method was used for DNA extraction from matrix. DNA amount was estimated by spectrophotometric analysis with wave's length 260 nm (SF-46). Received DNA was researched by electrophoresis in 0.8% […] gel with ethidium bromide staining.
(§2) One part of received DNA was processed for 3 hours by DNAase I at 37° C. After electrophoretic separation of processed and not processed DNA it was found out that: […]

[4] = tested on: DNA from biofilm matrix of Staphylococcus aureus; assay: as above; format: biochemical; details: DNA processed for 3 hours by DNAase I at 37° C.
Excerpt: as §1, §2

tumor cells = assay: In vitro effect of DNase I on tumor cells' growth; format: cell-based; details: DNase I concentration up to 100 mkg/ml
[5] = tested on: HPRT gene's mutations in blood T-lymphocytes; assay: Frequency of HPRT gene's mutations in blood T-lymphocytes, somatic mosaicism model (Example 18); format: in vivo; details: patients on Neovir after tumor surgery; human recombinant DNase I 200 mkg/kg intravenously 4 times a day during three weeks
Excerpt: Frequency of HPRT gene's mutations in blood T-lymphocytes was studied as a model of somatic mosaicism. Human HPRT gene (chromosome Xq26) encodes enzyme that is constitutionally expressing but not essential and is involved in metabolism of purine nucleotides. Cloning was done according to Bigbee W. method (Bigbee W. Et al., Mutation Res., 1998, v. 397, pp. 119-136).

metastases development = details: systemic introduction; Sugihara S. et al. (1990, 1993); cited from earlier work

For DNase, the “Blood plasma DNA concentration” value (blood plasma DNA; DNase 0.5 mg/kg four times a day) was 38.5 ng/mL, the “Blood plasma DNA concentration” value (blood plasma DNA; DNase 1 mg/kg twice a day) was 55.1 ng/mL and the “Number of animals that stayed alive to the third day” value ([1]; 10 per group) was “Six”. The Protection [1] was 67%, the “DNA band after electrophoresis” value [2] was “disappeared completely” and the “DNA band after electrophoresis” value [3] was “disappeared completely”. The “DNA band after electrophoresis” value [4] was “disappeared completely”, the “Effect on tumor cells' growth in vitro” value (tumor cells) was “does not cause direct cytotoxic effect; also recorded: not seen any suppressive effect” and the “Incidence of HPRT-deficient clones, times less than with immunostimulating therapy only” value [5] was 3 times. For the same substance, the Metastases development (metastases development) was “could slow metastases development”.
